Source: US20160201132A1, “GENE EXPRESSION BIOMARKERS OF LAQUINIMOD RESPONSIVENESS” (Teva Pharmaceutical Industries Ltd., priority 2013, published 2016)

Tested on: PBMC of RRMS patients
Assay: Gene expression microarray analysis (HG-U133A-2) of PBMC from RRMS patients treated with LAQ, ancillary study to ALLEGRO
Format: in vivo, human
Details: for Fold-Change (1.0 vs. 0.0): one month of treatment
From the text: The goal of this ancillary study was to characterize gene expression changes and corresponding biological mechanisms induced in PBMC of RRMS patients by LAQ treatment. According to ALLEGRO clinical trial inclusion criteria, 25 patients were randomly assigned to receive LAQ (n=13, age 38.8±2.3 years, female/male ratio: 8/5) or placebo (n=12, age 37.2±3.4 years, female/male ratio: 8/4).
Peripheral blood samples were obtained from RRMS patients at baseline before start of LAQ treatment or placebo, after 0, 1, 6 and 24 month of treatment (visit 0, 1, 6 and 7 according to ALLEGRO clinical trial protocol correspondently) for gene microarray analysis.
Briefly, 1) Peripheral blood mononuclear cells (PBMC) were obtained from RRMS patients that participated in ALLEGRO and were treated daily with 0.6 mg LAQ or placebo. PBMC were subjected for gene expression analysis (HU-133A-2-Affymatrix arrays) at baseline and at 1 and 6 months of LAQ treatment; 2) Data was analyzed by Partek Genomics Solution software. Most informative genes (MIGs) were defined as those that differentiated between groups with p<0.01. Gene functional annotation, enrichment and pathway analysis were performed by Ingenuity software. For each time point, genes that changed in placebo group were excluded from further analysis; and 3) Verification of LAQ related mechanism was performed by Western blot.
PBMC were extracted from 15 ml peripheral blood, separated by Ficoll-Hypaque gradient. Total RNA was extracted using both Trizol (Invitrogen, USA) and Phase-Lock-Gel columns (Eppendorf, Germany) including a DNase digestion step. RNA integrity was assessed by RNA Experion automated electrophoresis system (Bio-Rad Laboratories, Hercules, Calif.).
Probe synthesis using 3 μg total RNA, hybridization, detection, and scanning was performed according to the standard Affymetrix, Inc. USA protocols; cDNA was synthesized using the Two-Cycle cDNA Synthesis Kit (Affymetrix, Inc., USA), and in-vitro transcription performed with the GeneChip IVT Labeling Kit (Affymetrix, Inc., USA). The biotin-labeled IVT-RNA was hybridized to HG-U133A-2 arrays containing 18,400 gene transcripts, each corresponding to 14,500 well-annotated human genes, washed in a GeneChip Fluidics Station 450 (Hewlett Packard, USA, GeneArray-™ scanner G2500A) and scanned according to the manufacturer's protocol (Affymetrix, Inc., USA).
Data analysis was performed on Partek Genomics Solution software (www.partek.com; Partek Incorporated, St. Louis, Mo.). Expression values were computed from raw CEL files by applying the Robust Multi-Chip Average (RMA) background correction algorithm. RMA correction included: 1) values background correction; 2) quintile normalization; 3) log 2 transformation; and 4) median polish summarization. The ANOVA, Repeated Measures and correlation analysis implicated in Partek software ware applied to evaluate LAQ effects. Most informative genes MIGs were defined as those that differentiated between experimental groups with p<0.01. All p-values were calculated for False Discovery Rate (FDR) multiple test correction at p=0.05.
Additionally, significance of individual genes was tested by parametric T-test and non parametric Mann-Whitney test using Bootstrapping approach based on repeated permutations of the data with 5% FDR for multiple testing.
Gene functional annotation, enrichment, and pathway analyses to identify the leading biological pathways that operated under LAQ treatment were performed by Ingenuity Pathways Analysis software (www.ingenuity.com).
ANOVA analysis was used to compare PBMC gene expression after 1, 6 or 24 month of LAQ treatment with baseline gene expression.
For each time point inventors performed analysis source of variation in dataset. (FIG. 1). Age, gender and batch effects were considered as confounders regarding LAQ or Placebo related changes. For each time point genes associated with Placebo effect were evaluated and excluded from further analysis. […]

## CCN(C(=O)c1c(O)c2c(Cl)cccc2n(C)c1=O)c1ccccc1 [LAQ, 5-chloro-N-ethyl-4-hydroxy-1-methyl-2-oxo-N-phenyl-1,2-dihydroquinoline-3-carboxamide]
LYVE1 220037_s_at
  Fold-Change (1.0 vs. 0.0): −1.139
MARCH6 201736_s_at
  Fold-Change (1.0 vs. 0.0): −1.139
MAX 210734_x_at
  Fold-Change (1.0 vs. 0.0): −1.284
MFAP3L 205442_at
  Fold-Change (1.0 vs. 0.0): −1.854
MFAP3L 210493_s_at
  Fold-Change (1.0 vs. 0.0): −1.464
MYL9 201058_s_at
  Fold-Change (1.0 vs. 0.0): −1.74
MYST3 202423_at
  Fold-Change (1.0 vs. 0.0): −1.08
NAT8B 206964_at
  Fold-Change (1.0 vs. 0.0): −1.746
NENF 218407_x_at
  Fold-Change (1.0 vs. 0.0): −1.141
NRGN 204081_at
  Fold-Change (1.0 vs. 0.0): −1.604
PDE5A 206757_at
  Fold-Change (1.0 vs. 0.0): −1.213
PDGFA 205463_s_at
  Fold-Change (1.0 vs. 0.0): −1.536
PGRMC1 201120_s_at
  Fold-Change (1.0 vs. 0.0): −1.432
PGRMC1 201121_s_at
  Fold-Change (1.0 vs. 0.0): −1.443
POPDC3 219926_at
  Fold-Change (1.0 vs. 0.0): −1.1575
POU1F1 207846_at
  Fold-Change (1.0 vs. 0.0): −1.091
PPM1A 203966_s_at
  Fold-Change (1.0 vs. 0.0): −1.182
PRKG1 207119_at
  Fold-Change (1.0 vs. 0.0): −1.185
PRPF4B 202127_at
  Fold-Change (1.0 vs. 0.0): −1.135
PSD3 218613_at
  Fold-Change (1.0 vs. 0.0): −1.258
PTCRA 211837_s_at
  Fold-Change (1.0 vs. 0.0): −1.274
PTCRA 215492_x_at
  Fold-Change (1.0 vs. 0.0): −1.526
PTGIS 210702_s_at
  Fold-Change (1.0 vs. 0.0): −1.095
RBM25 212031_at
  Fold-Change (1.0 vs. 0.0): −1.105
RET 211421_s_at
  Fold-Change (1.0 vs. 0.0): −1.221
SDPR 218711_s_at
  Fold-Change (1.0 vs. 0.0): −1.662
SELP 206049_at
  Fold-Change (1.0 vs. 0.0): −1.642
SEPT6 214298_x_at
  Fold-Change (1.0 vs. 0.0): −1.133
SF3B1 201071_x_at
  Fold-Change (1.0 vs. 0.0): −1.0879
SLC37A1 218928_s_at
  Fold-Change (1.0 vs. 0.0): −1.126
SPARC 200665_s_at
  Fold-Change (1.0 vs. 0.0): −1.776
SPARC 212667_at
  Fold-Change (1.0 vs. 0.0): −1.73
SRRT 201680_x_at
  Fold-Change (1.0 vs. 0.0): −1.118
TAL1 206283_s_at
  Fold-Change (1.0 vs. 0.0): −1.752
TAS2R4 221392_at
  Fold-Change (1.0 vs. 0.0): −1.203
TBXA2R 336_at
  Fold-Change (1.0 vs. 0.0): −1.433
TGFB1 203085_s_at
  Fold-Change (1.0 vs. 0.0): −1.24
TMED10 200929_at
  Fold-Change (1.0 vs. 0.0): −1.099
TNFSF4 207426_s_at
  Fold-Change (1.0 vs. 0.0): −1.7061
TPM1 210986_s_at
  Fold-Change (1.0 vs. 0.0): −1.555
TPM1 210987_x_at
  Fold-Change (1.0 vs. 0.0): −1.447
TPTE 220205_at
  Fold-Change (1.0 vs. 0.0): −1.158
TRIM58 215047_at
  Fold-Change (1.0 vs. 0.0): −1.777
TUBB2B 214023_x_at
  Fold-Change (1.0 vs. 0.0): −1.159
VCL 200931_s_at
  Fold-Change (1.0 vs. 0.0): −1.406
WASF3 204042_at
  Fold-Change (1.0 vs. 0.0): −1.606
WDR48 222157_s_at
  Fold-Change (1.0 vs. 0.0): −1.103
XK 206698_at
  Fold-Change (1.0 vs. 0.0): −1.88
XYLT1 213725_x_at
  Fold-Change (1.0 vs. 0.0): 1.314
ZNF415 205514_at
  Fold-Change (1.0 vs. 0.0): −1.154
After one month of LAQ treatment
  p, differential expression of cellular movement and migration: 3.49*10^−4
After one month of treatment
  genes (#), Caveolar mediated endocytosis: 8
  genes (#), Cellular movement: Adhesion & migration of phagocytes: 9
  genes (#), Chemotaxis of neutrophils: 4
  genes (#), Clathrin mediated endocytosis: 12
  genes (#), Hematological system: Activation of blood platelets: 13
  genes (#), Hematological system: Aggregation of blood cells: 19
  genes (#), Hematological system: Aggregation of blood platelets: 18
  genes (#), Hematological system: Coagulation of blood: 14
  genes (#), Inflammatory response: Adhesion of phagocytes: 9
  genes (#), Inflammatory response: TGFb signaling: 10
  genes (#), Transmigration of leukocytes: 8
